Laboratory results as given in patent publication US12336981B2, “Compounds and compositions for the inhibition of NAMPT” (Valo Health, Inc., priority 2010, dated 2025).
Read-outs that look alike come from different tables or passages of the source.

Columns and labels:
A2780 cells = test: In-vitro cell proliferation assay (SRB), A2780 cells; type: cell-based; details: Homo sapiens, A2780, 72 h, A2780 cells, 72 hours, read-out: A2780 IC50
Procedure, shortened: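 Read-out is SRB absorbance at 570 nm on TCA-fixed cells after 72 hours of compound treatment at 37° C. in 5% CO2. Background from a media-only plate is subtracted, and % inhibition is interpolated between two tested concentrations.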

NAMPT = molecular target: T1, NAMPT (Homo sapiens, UniProt P43490); test: Biochemical inhibition assay: NAMPT enzymatic reaction, NMN quantified by mass spectrometry; details: read-out: Biochem IC50
T1 construct: His tag; host or cells: E. coli
T1 sequence (P43490 whole entry): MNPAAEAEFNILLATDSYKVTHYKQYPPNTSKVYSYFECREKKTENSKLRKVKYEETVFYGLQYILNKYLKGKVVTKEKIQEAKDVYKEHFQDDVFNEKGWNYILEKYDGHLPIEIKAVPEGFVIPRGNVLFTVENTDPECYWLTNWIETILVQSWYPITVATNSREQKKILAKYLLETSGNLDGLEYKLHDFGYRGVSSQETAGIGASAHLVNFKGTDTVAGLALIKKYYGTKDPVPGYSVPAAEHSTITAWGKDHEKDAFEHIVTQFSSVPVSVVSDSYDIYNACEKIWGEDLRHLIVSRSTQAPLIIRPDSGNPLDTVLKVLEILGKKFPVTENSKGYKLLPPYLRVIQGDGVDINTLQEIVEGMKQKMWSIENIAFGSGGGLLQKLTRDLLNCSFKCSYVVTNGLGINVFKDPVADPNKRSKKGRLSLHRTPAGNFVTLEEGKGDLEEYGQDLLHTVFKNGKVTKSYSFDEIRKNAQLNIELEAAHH
Procedure, shortened: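 Inhibition of E. coli-expressed His-tagged human NAMPT, measured as NMN formation by mass spectrometry after a 30 min room-temperature reaction containing 1 μM NAM, 100 μM PRPP and 2.5 mM ATP.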

SMILES	IC50 (A2780 cells; SRB)	IC50 (NAMPT; NAMPT enzymatic assay)	IC50 (A2780 cells; SRB assay)	IC50 (NAMPT; NAMPT enzymatic reaction)
Cc1cncc(S(=O)(=O)c2ccc(CNC(=O)c3cc4ccncc4s3)cc2)c1 [N-{[4-(5-methylpyridine-3-sulfonyl)phenyl]methyl}thieno[2,3-c]pyridine-2-carboxamide]	2.5 nM	6 nM	–	–
Cc1ccc(S(=O)(=O)c2ccc(CNC(=O)c3cnc4[nH]ncc4c3)cc2)s1 [N-{[4-(5-methylthiophene-2-sulfonyl)phenyl]methyl}-1H-pyrazolo[3,4-b]pyridine-5-carboxamide]	34.7 nM	22.3 nM	–	–
Cc1ccc(S(=O)(=O)c2ccc(CNC(=O)c3cc4cnccc4[nH]3)cc2)s1 [N-{[4-(5-methylthiophene-2-sulfonyl)phenyl]methyl}-1H-pyrrolo[3,2-c]pyridine-2-carboxamide]	–	–	13 nM	7 nM
Cc1ccc(S(=O)(=O)c2ccc(CNC(=O)c3cc4ccncc4s3)cc2)s1 [N-{[4-(5-methylthiophene-2-sulfonyl)phenyl]methyl}thieno[2,3-c]pyridine-2-carboxamide]	–	–	7.7 nM	5 nM
COc1ccc2cc(S(=O)(=O)c3ccc(CNC(=O)c4cc5cnccc5[nH]4)cc3)ccc2c1 [N-{[4-(6-methoxynaphthalene-2-sulfonyl)phenyl]methyl}-1H-pyrrolo[3,2-c]pyridine-2-carboxamide]	5.1 nM	9.9 nM	–	–
COc1ccc2cc(S(=O)(=O)c3ccc(CNC(=O)c4cc5ccncc5o4)cc3)ccc2c1 [N-{[4-(6-methoxynaphthalene-2-sulfonyl)phenyl]methyl}furo[2,3-c]pyridine-2-carboxamide]	3.6 nM	3 nM	–	–
COc1ccc2cc(S(=O)(=O)c3ccc(CNC(=O)c4ccc5nccn5c4)cc3)ccc2c1 [N-{[4-(6-methoxynaphthalene-2-sulfonyl)phenyl]methyl}imidazo[1,2-a]pyridine-6-carboxamide]	1.8 nM	2.7 nM	–	–
COc1ccc2cc(S(=O)(=O)c3ccc(CNC(=O)c4cc5ccncc5s4)cc3)ccc2c1 [N-{[4-(6-methoxynaphthalene-2-sulfonyl)phenyl]methyl}thieno[2,3-c]pyridine-2-carboxamide]	3.3 nM	1.5 nM	–	–
COc1cccc(S(=O)(=O)c2ccc(CNC(=O)c3ccc4nccn4c3)cc2)n1 [N-{[4-(6-methoxypyridine-2-sulfonyl)phenyl]methyl}imidazo[1,2-a]pyridine-6-carboxamide]	1.3 nM	5.2 nM	–	–
COc1cccc(S(=O)(=O)c2ccc(CNC(=O)c3cnc4nccn4c3)cc2)n1 [N-{[4-(6-methoxypyridine-2-sulfonyl)phenyl]methyl}imidazo[1,2-a]pyrimidine-6-carboxamide]	5.9 nM	2.2 nM	–	–
Cc1cncc(S(=O)(=O)c2ccc(CNC(=O)c3cnc4[nH]ncc4c3)cc2)n1 [N-{[4-(6-methylpyrazine-2-sulfonyl)phenyl]methyl}-1H-pyrazolo[3,4-b]pyridine-5-carboxamide]	31.2 nM	34.9 nM	–	–
Cc1cncc(S(=O)(=O)c2ccc(CNC(=O)c3cc4ccncc4o3)cc2)n1 [N-{[4-(6-methylpyrazine-2-sulfonyl)phenyl]methyl}furo[2,3-c]pyridine-2-carboxamide]	9.7 nM	20.9 nM	–	–
Cc1cncc(S(=O)(=O)c2ccc(CNC(=O)c3cnc4nccn4c3)cc2)n1 [N-{[4-(6-methylpyrazine-2-sulfonyl)phenyl]methyl}imidazo[1,2-a]pyrimidine-6-carboxamide]	52.5 nM	1 nM	–	–
Cc1cncc(S(=O)(=O)c2ccc(CNC(=O)c3cc4ccncc4s3)cc2)n1 [N-{[4-(6-methylpyrazine-2-sulfonyl)phenyl]methyl}thieno[2,3-c]pyridine-2-carboxamide]	5.1 nM	4.8 nM	–	–
Cc1cccc(S(=O)(=O)c2ccc(CNC(=O)c3cc4ccncc4o3)cc2)n1 [N-{[4-(6-methylpyridine-2-sulfonyl)phenyl]methyl}furo[2,3-c]pyridine-2-carboxamide]	12.5 nM	12.8 nM	–	–
Cc1ccc(S(=O)(=O)c2ccc(CNC(=O)c3cnc4[nH]ncc4c3)cc2)cn1 [N-{[4-(6-methylpyridine-3-sulfonyl)phenyl]methyl}-1H-pyrazolo[3,4-b]pyridine-5-carboxamide]	21.3 nM	24.1 nM	–	–
Cc1ccc(S(=O)(=O)c2ccc(CNC(=O)c3cc4cnccc4[nH]3)cc2)cn1 [N-{[4-(6-methylpyridine-3-sulfonyl)phenyl]methyl}-1H-pyrrolo[3,2-c]pyridine-2-carboxamide]	13 nM	55.7 nM	–	–
Cc1ccc(S(=O)(=O)c2ccc(CNC(=O)c3ccc4nccn4c3)cc2)cn1 [N-{[4-(6-methylpyridine-3-sulfonyl)phenyl]methyl}imidazo[1,2-a]pyridine-6-carboxamide]	13.9 nM	21.5 nM	–	–
Cc1ccc(S(=O)(=O)c2ccc(CNC(=O)c3cnc4nccn4c3)cc2)cn1 [N-{[4-(6-methylpyridine-3-sulfonyl)phenyl]methyl}imidazo[1,2-a]pyrimidine-6-carboxamide]	55.5 nM	5.9 nM	–	–

SMILES	IC50 (A2780 cells; SRB)	IC50 (NAMPT; NAMPT enzymatic assay)	IC50 (A2780 cells; SRB assay)	IC50 (NAMPT; NAMPT enzymatic reaction)
Cc1ccc(S(=O)(=O)c2ccc(CNC(=O)c3cc4ccncc4s3)cc2)cn1 [N-{[4-(6-methylpyridine-3-sulfonyl)phenyl]methyl}thieno[2,3-c]pyridine-2-carboxamide]	6.3 nM	22 nM	–	–
O=C(NCc1ccc(S(=O)(=O)c2ccccc2)cc1)c1ccc2ncccc2n1 [N-{[4-(benzenesulfonyl)phenyl]methyl}-1,5-naphthyridine-2-carboxamide]	–	–	> 10000 nM	875 nM
O=C(NCc1ccc(S(=O)(=O)c2ccccc2)cc1)c1ccc2cnccc2n1 [N-{[4-(benzenesulfonyl)phenyl]methyl}-1,6-naphthyridine-2-carboxamide]	> 10000 nM	2850 nM	–	–
Cn1ncc2cc(C(=O)NCc3ccc(S(=O)(=O)c4ccccc4)cc3)cnc21 [N-{[4-(benzenesulfonyl)phenyl]methyl}-1-methyl-1H-pyrazolo[3,4-b]pyridine-5-carboxamide]	–	–	> 30000 nM	1730 nM
Cn1c(C(=O)NCc2ccc(S(=O)(=O)c3ccccc3)cc2)cc2cnccc21 [N-{[4-(benzenesulfonyl)phenyl]methyl}-1-methyl-1H-pyrrolo[3,2-c]pyridine-2-carboxamide]	–	–	> 30000 nM	> 10000 nM
O=C(NCc1ccc(S(=O)(=O)c2ccccc2)cc1)N1CCc2[nH]cnc2C1 [N-{[4-(benzenesulfonyl)phenyl]methyl}-1H,4H,5H,6H,7H-imidazo[4,5-c]pyridine-5-carboxamide]	–	–	> 2000 nM	> 2000 nM
O=C(NCc1ccc(S(=O)(=O)c2ccccc2)cc1)N1CCc2[nH]ncc2C1 [N-{[4-(benzenesulfonyl)phenyl]methyl}-1H,4H,5H,6H,7H-pyrazolo[4,3-c]pyridine-5-carboxamide]	–	–	> 2000 nM	> 2000 nM
O=C(NCc1ccc(S(=O)(=O)c2ccccc2)cc1)c1nc2cnccc2[nH]1 [N-{[4-(benzenesulfonyl)phenyl]methyl}-1H-imidazo[4,5-c]pyridine-2-carboxamide]	–	–	5370 nM	7060 nM
O=C(NCc1ccc(S(=O)(=O)c2ccccc2)cc1)c1n[nH]c2ncccc12 [N-{[4-(benzenesulfonyl)phenyl]methyl}-1H-pyrazolo[3,4-b]pyridine-3-carboxamide]	–	–	> 10000 nM	1270 nM
O=C(NCc1ccc(S(=O)(=O)c2ccccc2)cc1)c1cnc2[nH]ncc2c1 [N-{[4-(benzenesulfonyl)phenyl]methyl}-1H-pyrazolo[3,4-b]pyridine-5-carboxamide]	–	–	51 nM	70 nM
O=C(NCc1ccc(S(=O)(=O)c2ccccc2)cc1)c1cnc2[nH]ccc2c1 [N-{[4-(benzenesulfonyl)phenyl]methyl}-1H-pyrrolo[2,3-b]pyridine-5-carboxamide]	–	–	> 30000 nM	1910 nM
O=C(NCc1ccc(S(=O)(=O)c2ccccc2)cc1)c1c[nH]c2ccncc12 [N-{[4-(benzenesulfonyl)phenyl]methyl}-1H-pyrrolo[3,2-c]pyridine-3-carboxamide]	2060 nM	1910 nM	–	–
O=C(NCc1ccc(S(=O)(=O)c2ccccc2)cc1)c1cc(-c2ccccn2)n[nH]1 [N-{[4-(benzenesulfonyl)phenyl]methyl}-3-(pyridin-2-yl)-1H-pyrazole-5-carboxamide]	–	–	23400 nM	7430 nM
O=C(NCc1ccc(S(=O)(=O)c2ccccc2)cc1)c1cc(-c2cccnc2)no1 [N-{[4-(benzenesulfonyl)phenyl]methyl}-3-(pyridin-3-yl)-1,2-oxazole-5-carboxamide]	–	–	> 30000 nM	33 nM
O=C(NCc1ccc(S(=O)(=O)c2ccccc2)cc1)c1cc(-c2ccncc2)n[nH]1 [N-{[4-(benzenesulfonyl)phenyl]methyl}-3-(pyridin-4-yl)-1H-pyrazole-5-carboxamide]	–	–	21600 nM	3180 nM
O=C(NCc1ccc(S(=O)(=O)c2ccccc2)cc1)c1[nH]c2ccncc2c1Br [N-{[4-(benzenesulfonyl)phenyl]methyl}-3-bromo-1H-pyrrolo[3,2-c]pyridine-2-carboxamide]	–	–	7390 nM	306 nM
O=C(NCc1ccc(S(=O)(=O)c2ccccc2)cc1)N1CCc2nocc2C1 [N-{[4-(benzenesulfonyl)phenyl]methyl}-4H,5H,6H,7H-[1,2]oxazolo[4,3-c]pyridine-5-carboxamide]	–	–	> 2000 nM	> 2000 nM
O=C(NCc1ccc(S(=O)(=O)c2ccccc2)cc1)N1CCc2ncccc2C1 [N-{[4-(benzenesulfonyl)phenyl]methyl}-5,6,7,8-tetrahydro-1,6-naphthyridine-6-carboxamide]	–	–	> 2000 nM	544 nM
